# Experimental data reported in patent US11730730B2, “Cell-based screening and compounds that modulate GalNAc-transferases” (Carnegie Mellon University, priority 2018, dated 2023).
# Where two headings read alike, the source gives them in different places.
# Legend:
# [1] = target: purified ppGalNAc-T2 (Homo sapiens, UniProt Q10471); conditions: purified enzyme, in vitro glycosylation
# Experimental: (§1) A second stage reaction (UDP-GLO™) then converted the accumulated UDP product to ATP and then, via luciferase, to light.
# (§2) Secondary screen. Glycosylation assays using recombinant ppGalNAc-T2 and ppGalNAc-T3 were carried out using the UDP-GLO™ Glycosyltransferase assay kit (Promega, Madison, Wis., Cat #V6962), according to the manufacturer's recommendation. The reaction (25 μl) included 2.5 ng/μl purified enzyme, 25 μM UDP-GalNAc (Sigma-Aldrich, Cat #U5252), 12.5 μM EA2 peptide (AnaSpec, Mucin 10, AA153-165, […], Cat #AS-63841), 25 mM Tris-HCl (pH7.5) (Fisher Scientific, Cat #77-86-1), 5 mM MnCl2 (Fisher Scientific, Cat #M87-500), 2.5 mM CaCl2) (Fisher Scientific, Cat #C70-500) and 50 μM compound. The negative control was vehicle only (same reaction mixture with a matched percentage of DMSO instead of compound), whereas background was from the reaction carried out without enzyme and DMSO instead of compound. All reactions were incubated at 37° C. in a water bath for 30 min and then cooled to room temperature. Aliquots (5 μl) were then added to 384-well plate (Thermo Scientific, Waltham, Mass., Cat #164610) to which 5 μl of UDP Detection Reagent was also added. Duplicate measures were made for all reactions. After 1 h at room temperature the luminescent signals were determined using a Tecan Infinite M1000 (Tecan Group Ltd., Männedorf, Switzerland) with integration time set to 1000 msec. The background-subtracted average for each compound was expressed as a percentage of the negative control (taken as 100%). Compounds with ≥50% effect were considered direct modulators.
# (§3) Titration assays. For the sensor assay, about 200,000 cells expressing either sensor were seeded into Greiner Bio-One 24-well plates (Sigma-Aldrich, Cat #662160). After 24 h, the cells were incubated for another 6 h in the presence of 0-50 μM compound. To release the cells the medium was replaced with 200 μl 5 mM EDTA/PBS containing 110 nM MG dye. After 5 min at 37° C., fluorescence measurements (20,000 cells/well) were carried out as described above. For the biochemical assay, the assay conditions were identical except for variations in the compound or substrate concentrations as indicated in the figure legends. Data analysis was completed using Prism (Graph Pad Prism Inc., SCR_002798).
# [2] = target: purified ppGalNAc-T3 (Homo sapiens, UniProt Q14435); conditions: for Vmax: percent of control without inhibitor
# Experimental: as §1, §2, §3
# [3] = tested on: HeLa cells; conditions: 24 h treatment, 10 or 20 μM
# Experimental: Lectin staining. […] After staining, the cells were washed twice, lysed with 0.2% Triton X-100 (Fisher Scientific, Cat #BP151-100) for 15 min at 4° C., centrifuged at 14,000×g for 15 min at 4° C., and the supernatants were read in a Greiner Bio-One 96-well glass-bottom plate using a Tecan Infinite M1000 with excitation at 495 nm and emission from 510-550 nm. Three independent trials were carried out and the peak value (520 nm) was used for quantification.
# [4] = tested on: HeLa cells; conditions: 6 h, 10 μM
# [5] = target: purified ppGalNAc-T6 (Homo sapiens, UniProt Q8NCL4); conditions: purified enzyme, in vitro glycosylation
# Experimental: as §2, with “Aliquots (5 μl) were then added to 384-well plate (Thermo Scientific, Waltham, Mass., Cat #164610) to which 5 μl of UDP Detection Reagent was also added. Duplicate measures were made for all reactions.” left out, “Compounds with ≥50% effect were considered direct modulators.” left out
# (§4) Titration assays. […] After 5 min at 37° C., fluorescence measurements (20,000 cells/well) were carried out as described above. […]
# [6] = tested on: HEK cells
# [7] = target: ppGalNAc-T2 (Homo sapiens, UniProt Q10471); conditions: HEK cells expressing T2 sensor, 6 h, 0-50 μM
# Experimental: (§5) Primary screen. HEK cells stably expressing the T2 sensor (containing ANGPTL3 linker sequence with T225G modification) or the T3 sensor (containing FGF23-based linker) were cultured in MEM (Corning, N.Y., Cat #10-010-CV) with 10% fetal bovine serum (FBS, Atlanta Biologicals, Flowery Branch, Ga., Cat #5111150) and 100 IU/ml penicillin-streptomycin (Sigma-Aldrich, Cat #P4333) at 37° C., 5% CO2. Positive controls were cell lines expressing matched sensors with the glycosylation site mutated (Δglycan), specifically T225G/T226G and T178G for the T2 and T3 sensors, respectively. Cells (50,000/well) were seeded in flat bottom 96-well-plates (Corning, N.Y., Cat #3997) and grown for 24 h. Compounds (the diversity set from ChemBridge Corporation (Chicago, Ill.) and the approved oncology drugs set V and the diversity set II from the National Cancer Institute Developmental Therapeutics Program) were then added to achieve a 10 μM final concentration. […] The plates were then transferred to an Accuri™ C6 flow cytometer (BD Biosciences) where GFP and MG fluorescence was measured using 488 nm and 640 nm for 10,000 cells per well. […]
# as §4
# [8] = target: ppGalNAc-T3 (Homo sapiens, UniProt Q14435); conditions: read-out: apparent IC50 of T3 sensor activation; HEK cells expressing T3 sensor, 6 h, 0-50 μM
# Experimental: as §5, §4
# [9] = target: purified lumenal domain of ppGalNAc-T3 (Homo sapiens, UniProt Q14435)
# From the text: Tryptophan fluorescence quenching assay. […] The value at the peak of emission at 324 nm was used for the binding curve analysis by Prism.
# [10] = tested on: FGF23; conditions: mice; for ratio of cleaved/intact FGF23 in the blood: 1 or 2 injections, blood 24 h after last
# Experimental: (§6) Animal analysis. Wild-type C57BL/6 six to eight week old mice were purchased from Charles River Laboratories International Inc. (Wilmington, Mass.). Protocols, handling, and care of the mice conformed to protocols approved by the Institutional Animal Care and Use Committee of Carnegie Mellon University (CMU IACUC protocol AS16-005). The compound was dissolved in DMSO at 25 and 50 mg/ml then further diluted with PEG400 (Hampton Research, CA, USA, HR2-603) to create 5 and 10 mg/ml stocks for injection. Control (vehicle only: 20% DMSO, 80% PEG400) and experimental (25 or 50 mg/kg compound) animals received either single or double (separated by 24 h) intraperitoneal injections and, 24 h after the last injection, a cardiac blood draw was carried out. The cleaved/intact FGF23 ratio was determined using ELISA kits from Immunotopics (Carlsbad, Va., USA, Cat #60-6800, Cat #60-6300) with cleaved equaling total minus intact.
# [11] = mice, 25 and 50 mg/kg intraperitoneal, 1 or 2 injections
# Experimental: as §6
# [12] = tested on: MDA-MB231 cells; conditions: MDA-MB231, 5 μM T3Inh-1, 24 or 48 h
# Experimental: Proliferation assay. […] After 24, 48 or 72 h, the cells were released using trypsin and counted twice using a hemocytometer for 3 independent trials.
# [13] = tested on: MCF7 cells; conditions: MCF7, 5 μM T3Inh-1, 24 h, Matrigel-coated filters
# Experimental: (§7) Cell invasion assay. Breast cancer MDA-MB231 cells were grown in DMEM medium (Corning, N.Y., Cat #10-013-CV) with 10% FBS and 100 IU/ml penicillin-streptomycin at 37° C. and 5% CO2 and then plated at a density of 1.32×104 in 0.3 ml of DMEM medium without FBS into the upper chamber of a BIOBOAT™ insert fitted with a 8.0 μm PET membrane (Corning, N.Y., Cat #354578). For migration assays, the filter was uncoated. […] Medium containing 10% FBS (0.6 ml) was placed into the lower chamber as a chemo attractant. The compound (final concentration of 5 μM) or a matching amount of DMSO was added to both chambers. After 24 h or 48 h the cells were fixed with −20° C. methanol for 15 min and then stained with Trypan blue for 5 min. Cells on the upper surface were removed using cotton swabs. Cells present on the underside of the membrane were photographed using an EVOS FL Cell Imaging System (Invitrogen, CA) and the images were thresholded for presentation and counting using Image J (National Institutes of Health, Bethesda, Md., SCR_003070). The assays involving MCF7 cells were identical except that they were performed 24 h post transfection.
# [14] = tested on: MDA-MB231 cells; conditions: 24 or 48 h
# Experimental: as §7
# [15] = tested on: FGF23
# Experimental: (§8) Immunoblotting. The FLAG-tagged FGF23, Myc-tagged ANGPTL3 with the T225G modification, and untagged ppGalNAc-T3 (cloned into PCDNA 3.0 using BamH1 sites) were transfected into HEK cells using the JetPEI transfection reagent (VWR International, Radnor, Pa., Cat #101-40N) according to the manufacturer's instructions. After 24 h, the medium was replaced with serum-free MEM containing the compound for 6 h. The medium and cells were then collected and, after trichloroacetic acid precipitation of the medium, analyzed by immunoblot using anti-FLAG antibody at 1:1000 or anti-Myc antibody at 1:2000 and then the peroxidase-coupled secondary antibodies. Emission was captured and quantified using a CHEMIDOC™ Touch Imaging System with Image Lab Software (BioRad, SCR_014210). For ppGalNAc-T3 determinations in different cell lines, cells were collected and lysed with 100 μl buffer (10 mM Tris-HCl (pH8.0), 1 mM EDTA (ACROS ORGANICS, Cat #446085000), 1% Triton X-100, 0.1% sodium deoxycholate (Fisher Scientific, Cat #BP349-100), 0.1% SDS (Fisher Scientific, Cat #BP166-500), 140 mM NaCl (Fisher Scientific, Cat #5271-3), 1 mM PMSF (Sigma-Aldrich, Cat #PMSF-RO). Then 15 μl of each lysate was analyzed by immunoblotting using the purchased anti-ppGalNAc-T3 and anti-α-tubulin antibodies.
# [16] = tested on: ANGPTL3; conditions: media of HEK cells transfected with Myc-ANGPTL3, 6 h
# Experimental: as §8
smiles,measurement,setting,value
O=C(Nc1ccc(Nc2ccncc2)cc1)c1ccc(Nc2ccnc3ccccc23)cc1 [Compound T3Inh-1],inhibition of ppGalNAc-T2,[1],undetectable
same,inhibition of ppGalNAc-T3 in the secondary screen,"[2]; 50 μM compound, versus ppGalNAc-T2",strong and selective inhibitor
same,IC50,"[2]; read-out: IC50 of inhibition of ppGalNAc-T3, purified enzyme, in vitro glycosylation",7 µM
same,Ki,[2]; substrate varied: Peptide (EA2),9.9 µM
same,Vmax,"[2]; substrate varied: Peptide (EA2), 7.5 μM T3Inh-1",82%
same,Vmax,"[2]; substrate varied: Peptide (EA2), 15 μM T3Inh-1",36%
same,Ki,[2]; substrate varied: UDP-GalNAc,2.9 µM
same,Vmax,"[2]; substrate varied: UDP-GalNAc, 7.5 μM T3Inh-1",71%
same,Vmax,"[2]; substrate varied: UDP-GalNAc, 15 μM T3Inh-1",56%
same,staining intensity by lectin Concanavalin A (ConA),[3],did not affect
same,staining intensity by lectin Sambucus Nigra (SNA),[3],did not affect
same,staining intensity by lectin Vicia Villosa (VVA),[3],did not affect
same,staining intensity by lectin Wheat germ agglutinin (WGA),[3],did not affect
same,"localization or expression level of ppGalNAc-T3, ppGalNAc-T2 or any other Golgi marker tested",[4],no change
same,activity against ppGalNAc-T6,[5],lacked activity
same,HEK cell proliferation,"[6]; 0-50 μM, 24, 48, 72 h, cell counting",did not affect
same,toxicity,"[6]; HEK cells, continuous exposure 24, 48, 72 h",no toxicity
same,activity towards the T2 sensor,[7],little or no activity
same,IC50,[8],12 µM
same,Kd,"[9]; read-out: apparent Kd of direct binding, quenching at 324 nm",17 µM
same,affinity of binding to GalNAc-T3,[9]; stated in words,low micromolar
same,ratio of cleaved/intact FGF23 in the blood,[10]; 25 mg/kg intraperitoneal,robust and statistically significant increase
same,ratio of cleaved/intact FGF23 in the blood,[10]; 50 mg/kg intraperitoneal,robust and statistically significant increase
same,increase of level of proteolyzed C-terminal FGF23 fragment,[10]; intraperitoneal injection,8 fold
same,effects on animal health,[11],no apparent ill effects
same,effect on cell proliferation,[12],no discernable effect
same,increase of invasion caused by ppGalNAc-T3 transfection,[13],strongly blocked
same,inhibition of invasion,"[14]; 5 μM T3Inh-1, Matrigel-coated filters",98%
same,inhibition of migration,"[14]; 5 μM T3Inh-1, uncoated filters",> 80%
same,intact and cleaved FGF23 in cell lysates,"[15]; cell extracts, 6 h, also with 100 μM chloroquine",no change
same,half-max of increase in ratio of cleaved/intact FGF23,"[15]; media of HEK cells co-expressing FGF23 and ppGalNAc-T3, 6 h",14 µM
same,secreted intact FGF23,"[15]; media, 6 h, increasing concentrations",dose-dependent loss
same,secreted intact ANGPTL3,[16],remained high at all concentrations
